Laboratory results: patent US20100298141A1, “SUBSTITUTED PYRIDINE N-OXIDE HERBICIDES” (E. I. DU PONT DE NEMOURS AND COMPANY, priority 2007, published 2010)

How the values were obtained:
[1] = test system: mustard; assay: Test F preemergence test; type: in vivo, Brassica nigra; details: scale 0 to 100
In short: (§1)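 Preemergence application to planted seeds, or postemergence to sugarcane plants; compound in non-phytotoxic solvent mix plus surfactant. Greenhouse, 14-21 days. Visual rating vs. controls.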

[2] = test system: purple nutsedge; assay: Test F preemergence test; type: in vivo, Cyperus rotundus; details: scale 0 to 100
In short: as §1

[3] = test system: large crabgrass; assay: Test F preemergence test; type: in vivo, Digitaria sanguinalis; details: scale 0 to 100
In short: as §1

[4] = test system: barnyardgrass; assay: Test F preemergence test; type: in vivo, Echinochloa crus-galli
In short: as §1

[5] = test system: woolly cupgrass; assay: Test C pre-/postemergence test; type: in vivo, Eriochloa villosa
In short: (§2)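 Test chemicals were formulated with surfactant in a non-phytotoxic solvent and sprayed both on freshly planted seeds (preemergence) and on 1- to 4-leaf plants of 2–18 cm (postemergence). Flooded-paddy pots received compound directly into 3 cm of standing water, maintained for the test.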

[6] = test system: broadleaf signalgrass; assay: Test F preemergence test; type: in vivo, Brachiaria platyphylla; details: scale 0 to 100
In short: as §1

[7] = test system: kochia; assay: Test F preemergence test; type: in vivo, Kochia scoparia; details: scale 0 to 100
In short: as §1

[8] = test system: common ragweed; assay: Test F preemergence test; type: in vivo, Ambrosia elation; details: scale 0 to 100
In short: as §1

[9] = test system: Italian ryegrass; assay: Test F preemergence test; type: in vivo, Lolium multiflorum; details: scale 0 to 100
In short: as §1

[10] = test system: quackgrass; assay: Test F preemergence test; type: in vivo, Elytrigia repens; details: scale 0 to 100
In short: as §1

[11] = test system: corn; assay: Test C pre-/postemergence test; type: in vivo, Zea mays
In short: as §2

[12] = test system: goosegrass; assay: Test F preemergence test; type: in vivo, Eleusine indica; details: scale 0 to 100
In short: as §1

[13] = test system: Surinam grass; assay: Test F preemergence test; type: in vivo, Brachiaria decumbens; details: scale 0 to 100
In short: as §1

[14] = test system: southern sandbur; assay: Test F preemergence test; type: in vivo, Cenchrus echinatus; details: scale 0 to 100
In short: as §1

[15] = test system: blackgrass; assay: Test C pre-/postemergence test; type: in vivo, Alopecurus myosuroides
In short: as §2

[16] = test system: bermudagrass; assay: Test F preemergence test; type: in vivo, Cynodon dactylon; details: scale 0 to 100
In short: as §1

[17] = 62 g ai/ha, Preemergence, scale 0 to 100
[18] = 125 g ai/ha, preemergence, scale 0 (no effect) to 100 (complete control)
[19] = Postemergence, 62 g ai/ha, scale 0 to 100, 0 no effect, 100 complete control
[20] = Postemergence, 125 g ai/ha, scale 0 to 100, 0 no effect, 100 complete control
[21] = Postemergence, 250 g ai/ha, scale 0 to 100, 0 no effect, 100 complete control
[22] = Preemergence, 31 g ai/ha, scale 0 to 100 (0 no effect, 100 complete control)
[23] = preemergence, 250 g ai/ha, scale 0 (no effect) to 100 (complete control)

Cn1nc(C(F)(F)F)c(C[S+]([O-])c2ccc(F)c[n+]2[O-])c1OCC(F)(F)F (stereo not drawn) [Compound 67]
Plant response rating, Black Mustard ([1]; 16 g ai/ha, preemergence): 0 | Black Mustard plant response rating ([1]; 62 g ai/ha, Preemergence): 100 | Black Mustard plant response rating ([1]; 125 g ai/ha, preemergence): 100 | Plant response rating, Black Mustard ([1]; Preemergence, 31 g ai/ha): 75 | Plant response rating, Purple Nutsedge ([2]; 16 g ai/ha, preemergence): 0 | Purple Nutsedge plant response rating ([2]; 62 g ai/ha, Preemergence): 60 | Purple Nutsedge plant response rating ([2]; 125 g ai/ha, preemergence): 95 | Plant response rating, Purple Nutsedge ([2]; Preemergence, 31 g ai/ha): 30 | Plant response rating, Crabgrass, Large ([3]; 16 g ai/ha, preemergence): 65 | Crabgrass, Large plant response rating ([3]; 62 g ai/ha, Preemergence): 98 | Crabgrass, Large plant response rating ([3]; 125 g ai/ha, preemergence): 100 | Plant response rating, Crabgrass, Large ([3]; Preemergence, 31 g ai/ha): 98 | Plant response rating, Barnyardgrass ([4]; 16 g ai/ha, preemergence, scale 0 to 100 (0 no effect, 100 complete control)): 75 | Barnyardgrass plant response rating [4, 17]: 100 | Barnyardgrass plant response rating ([4]; 125 g ai/ha, preemergence, scale 0 to 100): 100 | Plant response rating, Barnyardgrass ([4]; Preemergence, 31 g ai/ha, scale 0 to 100): 90 | Cupgrass, Woolly plant response rating [5, 17]: 80 | Cupgrass, Woolly plant response rating [5, 18]: 98 | Plant response rating (0 to 100), Cupgrass, Woolly ([5]; Postemergence, 31 g ai/ha): 0 | Plant response rating, Cupgrass, Woolly [5, 19]: 0 | Plant response rating, Cupgrass, Woolly [5, 20]: 30 | Plant response rating, Cupgrass, Woolly [5, 21]: 50 | Plant response rating, Cupgrass, Woolly [5, 22]: 70 | Cupgrass, Woolly plant response rating [5, 23]: 100 | Plant response rating, Signalgrass ([6]; 16 g ai/ha, preemergence): 0 | Signalgrass plant response rating ([6]; 125 g ai/ha, preemergence): 98 | Plant response rating, Signalgrass ([6]; Preemergence, 62 g ai/ha): 90 | Plant response rating, Signalgrass ([6]; Preemergence, 31 g ai/ha): 30 | Plant response rating, Kochia ([7]; 16 g ai/ha, preemergence): 0 | Kochia plant response rating ([7]; 62 g ai/ha, Preemergence): 100 | Kochia plant response rating ([7]; 125 g ai/ha, preemergence): 100 | Plant response rating, Kochia ([7]; Preemergence, 31 g ai/ha): 60 | Plant response rating, Ragweed ([8]; 16 g ai/ha, preemergence): 20 | Ragweed plant response rating ([8]; 125 g ai/ha, preemergence): 98 | Plant response rating, Ragweed ([8]; Preemergence, 62 g ai/ha): 90 | Plant response rating, Ragweed ([8]; Preemergence, 31 g ai/ha): 65 | Plant response rating, Ryegrass, Italian ([9]; 16 g ai/ha, preemergence): 40 | Ryegrass, Italian plant response rating ([9]; 125 g ai/ha, preemergence): 100 | Plant response rating, Ryegrass, Italian ([9]; Preemergence, 62 g ai/ha): 100 | Plant response rating, Ryegrass, Italian ([9]; Preemergence, 31 g ai/ha): 75 | Plant response rating, Quackgrass ([10]; 16 g ai/ha, preemergence): 60 | Quackgrass plant response rating ([10]; 62 g ai/ha, Preemergence): 85 | Quackgrass plant response rating ([10]; 125 g ai/ha, preemergence): 98 | Plant response rating, Quackgrass ([10]; Preemergence, 31 g ai/ha): 75 | Corn plant response rating [11, 17]: 95 | Corn plant response rating [11, 18]: 95 | Plant response rating (0 to 100), Corn ([11]; Postemergence, 31 g ai/ha): 0 | Plant response rating, Corn [11, 19]: 0 | Plant response rating, Corn [11, 21]: 0 | Plant response rating, Corn [11, 22]: 45 | Corn plant response rating [11, 23]: 100 | Plant response rating, Goosegrass ([12]; 16 g ai/ha, preemergence): 50 | Goosegrass plant response rating ([12]; 62 g ai/ha, Preemergence): 80 | Goosegrass plant response rating ([12]; 125 g ai/ha, preemergence): 100 | Plant response rating, Goosegrass ([12]; Preemergence, 31 g ai/ha): 70 | Plant response rating, Surinam Grass ([13]; 16 g ai/ha, preemergence): 75 | Surinam Grass plant response rating ([13]; 125 g ai/ha, preemergence): 100 | Plant response rating, Surinam Grass ([13]; Preemergence, 62 g ai/ha): 100 | Plant response rating, Surinam Grass ([13]; Preemergence, 31 g ai/ha): 95 | Plant response rating, Sandbur ([14]; 16 g ai/ha, preemergence): 60 | Sandbur plant response rating ([14]; 125 g ai/ha, preemergence): 100 | Plant response rating, Sandbur ([14]; Preemergence, 62 g ai/ha): 100 | Plant response rating, Sandbur ([14]; Preemergence, 31 g ai/ha): 100 | Blackgrass plant response rating [15, 17]: 100 | Blackgrass plant response rating [15, 18]: 100 | Plant response rating (0 to 100), Blackgrass ([15]; Postemergence, 31 g ai/ha): 30 | Plant response rating, Blackgrass [15, 19]: 80 | Plant response rating, Blackgrass [15, 20]: 90 | Plant response rating, Blackgrass [15, 21]: 90 | Plant response rating, Blackgrass [15, 22]: 90 | Blackgrass plant response rating [15, 23]: 100 | Plant response rating, Bermudagrass ([16]; 16 g ai/ha, preemergence): 20 | Bermudagrass plant response rating ([16]; 62 g ai/ha, Preemergence): 98 | Bermudagrass plant response rating ([16]; 125 g ai/ha, preemergence): 100 | Plant response rating, Bermudagrass ([16]; Preemergence, 31 g ai/ha): 75
